In patent US12325697B2 (Nimbus Clio, Inc., priority 2021, dated 2025):

How the values were obtained:
[1] = system: Phospho-Zap70 (Y-319) in Jurkat wild-type (clone E6-1) cells; test: Jurkat pZAP70 HTRF Assay; assay type: cell-based; settings: Homo sapiens, anti-CD3 5 μg/ml, 3 hr, read-out: ZAP70 Jurkat EC50
[2] = system: Jurkat (clone E6-1) cells, NFAT luciferase reporter; test: Jurkat Reporter Assay (NFAT Luciferase); assay type: cell-based; settings: Homo sapiens, anti-CD3 stimulation, 6 hr, read-out: Jurkat NFAT EC50
[3] = molecular target: Recombinant human Cbl-b (aa 36-427) (Homo sapiens (Human), UniProt Q13191); test: Cbl-b Biochemical Assay (TR-FRET); settings: read-out: TR-FRET hCbl-b IC50
Method in brief: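 Two-step TR-FRET: 6 nM biotinylated Cbl-b preincubated 30-60 min with compound, then 60 min at RT with 1-2.5 nM Src-Zap70 and 0.5 mM ATP in HEPES pH 7.0 buffer, 1% DMSO. Stopped with 5 mM EDTA plus 100 nM UBE2D2-Ub-FL-BODIPY and 1 nM streptavidin-Tb, 60 min; 520 nm signal; IC50 from 4-parameter fit.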

Recombinant human Cbl-b (aa 36-427), sequence (Q13191 36-427): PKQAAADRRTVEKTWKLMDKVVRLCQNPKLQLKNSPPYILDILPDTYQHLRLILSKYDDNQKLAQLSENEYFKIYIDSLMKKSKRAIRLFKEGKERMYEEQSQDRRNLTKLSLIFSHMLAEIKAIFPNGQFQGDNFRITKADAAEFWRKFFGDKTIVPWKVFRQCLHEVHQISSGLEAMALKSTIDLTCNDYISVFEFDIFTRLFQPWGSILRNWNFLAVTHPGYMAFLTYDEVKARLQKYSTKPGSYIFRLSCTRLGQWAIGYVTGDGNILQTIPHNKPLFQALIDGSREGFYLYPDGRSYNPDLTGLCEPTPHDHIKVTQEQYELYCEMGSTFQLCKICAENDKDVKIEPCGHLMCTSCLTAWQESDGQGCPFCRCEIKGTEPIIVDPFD

| SMILES | EC50 [1] [nM] | EC50 [2] [nM] | IC50 [3] [nM] |
| --- | --- | --- | --- |
| C[C@H]1CCCN(Cc2cc3c(c(C(F)(F)F)c2)CN(c2cccc(-c4ccc(C#N)cc4-c4nncn4C)c2)C3=O)C1 [ADQ-2, 2-(4-methyl-1,2,4-triazol-3-yl)-3′-(6-{[(3S)-3-methylpiperidin-1-yl]methyl}-1-oxo-4-(trifluoromethyl)-3H-isoindol-2-yl)-[1,1′-biphenyl]-4-carbonitrile] | < 200 | < 200 | ≤ 200 |
| CCNc1cc(-c2ccc(F)cc2-c2nncn2C)cc(N2Cc3c(cc(COCC4(O)CCC4)cc3C(F)(F)F)C2=O)n1 [AFF-2, 2-[6-(Ethylamino)-4-[4-fluoro-2-(4-methyl-1,2,4-triazol-3-yl)phenyl]pyridin-2-yl]-6-{1[(1-hydroxycyclobutyl)methoxy]methyl}-4-(trifluoromethyl)-3H-isoindol-1-one] | < 200 | < 200 | ≤ 200 |
| Cn1cnnc1-c1cnn(C)c1-c1cc(C2CC2)nc(N2Cc3c(cc(COCC4(O)CCC4)cc3C(F)(F)F)C2=O)c1 [AFV-3, 2-{6-Cyclopropyl-4-[2-methyl-4-(4-methyl-1,2,4-triazol-3-yl)pyrazol-3-yl]pyridin-2-yl}-6-{[(1-hydroxycyclobutyl)methoxy]methyl}-4-(trifluoromethyl)-3H-isoindol-1-one] | 200 to 1000 | < 200 | ≤ 200 |
| CCNc1cc(-c2ccc(F)cc2-c2nncn2C)cc(N2Cc3c(cc(COCC(C)(C)O)cc3C(F)(F)F)C2=O)n1 [AFG-1, 2-[6-(Ethylamino)-4-[4-fluoro-2-(4-methyl-1,2,4-triazol-3-yl)phenyl]pyridin-2-yl]-6-[(2-hydroxy-2-methylpropoxy)methyl]-4-(trifluoromethyl)-3H-isoindol-1-one] | 200 to 1000 | < 200 | ≤ 200 |
| COCCNCc1ccc2c(c1)C(=O)N(c1cc(-c3ccc(C#N)cc3-c3nncn3C)cc(C3CC3)n1)C2 [AGO-2, 4-(2-Cyclopropyl-6-(6-(((2-methoxyethyl)amino)methyl)-1-oxoisoindolin-2-yl)pyridin-4-yl)-3-(4-methyl-4H-1,2,4-triazol-3-yl)benzonitrile] | < 200 | < 200 | ≤ 200 |
| CCNc1cc(-c2c(-c3nncn3C)cnn2C)cc(N2Cc3c(cc(COCC4(O)CCC4)cc3C(F)(F)F)C2=O)n1 [AED-2, 2-[6-(Ethylamino)-4-[2-methyl-4-(4-methyl-1,2,4-triazol-3-yl)pyrazol-3-yl]pyridin-2-yl]-6-{[(1-hydroxycyclobutyl)methoxy]methyl}-4-(trifluoromethyl)-3H-isoindol-1-one] | 200 to 1000 | < 200 | ≤ 200 |
| CCNc1cc(-c2ccc(C#N)cc2-c2nncn2C)cc(N2Cc3c(cc(NC)cc3C(F)(F)F)C2=O)n1 [AFA-2, 4-[2-(ethylamino)-6-[6-(methylamino)-1-oxo-4-(trifluoromethyl)-3H-isoindol-2-yl]pyridin-4-yl]-3-(4-methyl-1,2,4-triazol-3-yl)benzonitrile] | 200 to 1000 | < 200 | ≤ 200 |
| Cn1cnnc1-c1cc(C#N)ccc1-c1cc(C2CC2)nc(N2Cc3c(cc(CNCCOC(F)(F)F)cc3C(F)(F)F)C2=O)c1 [AGN-3, 4-{2-Cyclopropyl-6-[1-oxo-6-({[2-(trifluoromethoxy)ethyl]amino}methyl)-4-(trifluoromethyl)-3H-isoindol-2-yl]pyridin-4-yl}-3-(4-methyl-1,2,4-triazol-3-yl)benzonitrile] | 200 to 1000 | < 200 | ≤ 200 |
| CCNc1cc(-c2c(-c3nncn3C)cnn2C)cc(N2Cc3c(cc(CO[C@@H]4CCC[C@@H]4O)cc3C(F)(F)F)C2=O)n1 (racemic) [ADB-1, (rac)-2-[6-(ethylamino)-4-[2-methyl-4-(4-methyl-1,2,4-triazol-3-yl)pyrazol-3-yl]pyridin-2-yl]-6-({[(1R,2S)-2-hydroxycyclopentyl]oxy}methyl)-4-(trifluoromethyl)-3H-isoindol-1-one] | 1000 to 10000 | 200 to 1000 | ≤ 200 |
